What is called IC50 is the point on the concentration scale where inhibition reaches its midpoint.

The target in this experiment is T1, Stearoyl-CoA desaturase (Homo sapiens, UniProt O00767).
T1 sequence (O00767 whole entry): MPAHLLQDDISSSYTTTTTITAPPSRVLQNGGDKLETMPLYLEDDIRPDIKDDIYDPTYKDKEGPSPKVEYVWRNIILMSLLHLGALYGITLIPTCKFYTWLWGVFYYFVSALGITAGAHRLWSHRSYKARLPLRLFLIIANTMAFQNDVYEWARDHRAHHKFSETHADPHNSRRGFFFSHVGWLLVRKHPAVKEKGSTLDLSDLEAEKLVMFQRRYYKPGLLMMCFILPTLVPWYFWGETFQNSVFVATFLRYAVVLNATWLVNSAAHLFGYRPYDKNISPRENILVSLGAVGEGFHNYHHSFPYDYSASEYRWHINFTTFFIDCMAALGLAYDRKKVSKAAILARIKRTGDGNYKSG
Nature of the experiment: Enzyme Activity Assay: The potency of compounds of formula I against the stearoyl-CoA desaturase was determined by measuring the conversion of radiolabeled stearoyl-CoA to oleoyl-CoA using rat liver microsome or human SCD1 following previously published procedures with some modifications (Joshi, et al., J. Lipid Res., 18: 32-36 (1977); Talamo, et al., Anal. Biochem, 29: 300-304 (1969)). Liver microsome was prepared from male Wistar or Sprague Dawley rats on a high carbohydrate diet for 3 days (LabDiet #5803, Purina). The livers were homogenized (1:10 w/v) in a buffer containing 250 mM sucrose, 1 mM EDTA, 5 mM DTT and 50 mM Tris-HCl (pH 7.5). After a 100,000xg centrifugation for 60 min, the liver microsome pellet was suspended in a buffer containing 100 mM sodium phosphate, 20% glycerol, 2 mM DTT, and stored at -78° C. Human SCD1 desaturase system was reconstituted using human SCD1 from a baculovirus/Sf9 expression system, cytochrome B5 and cytochrome B5 reductase. The class given is microsomes. In general terms: Microsomes from liver hold many membrane-bound enzymes, among them those of drug oxidation.
On to `O=C(O)Cn1nnc(-c2cnc(N3CCC4(CC3)CC(=O)c3c(Cl)cccc3O4)s2)n1`, for which the IC50 came to 12 nM.

Take `O=C(O)Cn1nnc(-c2nnc(N3CCC4(CC3)CC(=O)c3c(Cl)cccc3O4)s2)n1`: the IC50 was 24 nM.

`O=C(O)Cn1nnc(-c2cc(N3CCC4(CC3)CC(=O)c3c(Cl)cccc3O4)no2)n1` displayed a half-inhibitory concentration (IC50) of 17 nM.

(Values after ChEMBL document CHEMBL3886309, “Spiro compounds useful as inhibitors of stearoyl-coenzyme A delta-9 desaturase” (2015).)
